The source of these data is BindingDB's records for PubMed 37191335 (Tongji University, 2023).

For orientation: Kd means a measure of binding affinity in units of concentration.

Molecules are shown by their SMILES. Peptide text beside a SMILES is read from it.

Experiment [1] in a line: Inhibition of TNF-alpha (unknown origin) binding to TNFR1 assessed as dissociation constant of TNF-alpha preincubated for 15 mins by MST assay (Rvb = 13.4 nM).
Experiment [2] in a line: Inhibition of TNF-alpha (unknown origin) binding to TNFR2 assessed as dissociation constant of TNF-alpha preincubated for 15 mins by MST assay (Rvb = 30.5 nM).

For `C[C@H](N)C(=O)N[C@@H](CS)C(=O)N[C@@H](Cc1cnc[nH]1)C(=O)N[C@@H](C)C(=O)N[C@@H](Cc1c[nH]c2ccccc12)C(=O)N[C@@H](C)C(=O)N1CCC[C@H]1C(=O)N[C@H](C(=O)N[C@@H](CCCNC(=N)N)C(=O)O)[C@@H](C)O` (H-ACHAWAPTR-OH), the dissociation constant Kd in experiment [1] came out at 996 nM; in experiment [2] it was 321 nM.
